From ChEMBL document CHEMBL4428037 (J Med Chem, 2016)
Active and inactive are the calls of the source. No cut-off for these calls is given here.

Columns and labels:
[1] = tested on: PC-3; assay: Growth inhibition of human PC3 cells incubated for 72 hrs by MTT assay; type: functional, cell-based; details: PC-3, 72 h
[2] = tested on: HeLa; assay: Growth inhibition of human HeLa cells incubated for 72 hrs by MTT assay; type: functional, cell-based
[3] = tested on: HepG2; assay: Growth inhibition of human HepG2 cells incubated for 72 hrs by MTT assay; type: functional, cell-based; details: HepG2, 72 h
[4] = tested on: MCF7; assay: cells; details: Homo sapiens, MCF7, 72 h
[5] = biological target: T1, Tubulin (Sus scrofa) (UniProt P02554+P02550); assay: Displacement of [3H]colchicine from biotinylated porcine tubulin at 1 uM incubated for 2 hrs by competition scintillation proximity; type: protein assay
[6] = biological target: T1, Tubulin (Sus scrofa); assay: Displacement of [3H]colchicine from biotinylated porcine tubulin at 5 uM incubated for 2 hrs by competition scintillation proximity; type: protein assay
[7] = biological target: Tubulin (Sus scrofa, UniProt P02554+P02550); assay: (§1) Inhibition of porcine brain tubulin polymerization incubated for 60 mins by fluorescence-based assay
[8] = biological target: T1, Tubulin (Sus scrofa); assay: as §1
[9] = tested on: A549; assay: Induction of apoptosis in human A549 cells assessed as induction of cell shrinkage at 40 nM incubated for 24 hrs microscopy; type: functional, cell-based
[10] = tested on: A549; assay: Induction of apoptosis in human A549 cells assessed as induction of cytoplasmic membrane blebbing at 40 nM incubated for 24 hrs microscopy; type: functional, cell-based
[11] = tested on: A549; assay: Induction of apoptosis in human A549 cells assessed as late apoptotic cells level at 40 nM incubated for 24 hrs by Annexin V-FITC/PI staining based FACS flow cytometry (reference value: 2.15%); type: functional
[12] = tested on: A549; assay: Induction of apoptosis in human A549 cells assessed as live cells level at 40 nM incubated for 24 hrs by Annexin V-FITC/PI staining based FACS flow cytometry (reference value: 96.83%); type: functional
[13] = tested on: A549; assay: Induction of apoptosis in human A549 cells assessed as necrotic cells level at 40 nM incubated for 24 hrs by Annexin V-FITC/PI staining based FACS flow cytometry (reference value: 0.37%); type: functional
[14] = biological target: T2, Tubulin alpha (Homo sapiens) (UniProt P0DPH7+P68366+Q71U36+P68363+Q9BQE3+Q6PEY2+A6NHL2+Q9NY65); assay: Inhibition of alpha tubulin polymerization in human A549 cells assessed as induction of cell border shrinkage of microtubules at 40 nM by Immunofluorescent staining based fluorescence microscopy
[15] = tested on: A549; assay: Induction of cell cycle arrest in human A549 cells assessed as accumulation at G2/M phase at 40 nM incubated for 24 hrs by propidium iodide staining based FACS flow cytometry; type: functional
[16] = tested on: A549; assay: Induction of apoptosis in human A549 cells assessed as induction of chromatin condensation at 40 nM incubated for 24 hrs microscopy; type: functional, cell-based
[17] = tested on: A549; assay: Induction of apoptosis in human A549 cells assessed as early apoptotic cells level at 40 nM incubated for 24 hrs by Annexin V-FITC/PI staining based FACS flow cytometry (reference value: 0.65%); type: functional
[18] = tested on: NCI-H460; assay: Growth inhibition of human NCI-H460 cells incubated for 48 hrs by MTT assay; type: functional, cell-based; details: NCI-H460, 48 h
[19] = tested on: A549; assay: Growth inhibition of human A549 cells incubated for 48 hrs by MTT assay; type: functional, cell-based; details: A549, 48 h
[20] = biological target: T2, Tubulin alpha (Homo sapiens); assay: Inhibition of alpha tubulin polymerization in human A549 cells assessed as induction of microtubule network dis-organization at 40 nM by Immunofluorescent staining based fluorescence microscopy; type: cell-based
[21] = tested on: A549; assay: Induction of apoptosis in human A549 cells assessed as induction of nucleus fragmentation at 40 nM incubated for 24 hrs microscopy; type: functional, cell-based

SMILES | IC50 [1] [nM] | IC50 [2] [nM] | IC50 [3] [nM] | IC50 [4] [nM] | other results
CCOc1cccc(Nc2nn(C)c3c2Cc2cc(OCC)c(OCC(=O)NCCOC)cc2-3)c1 | 800 | 490 | 447 | 1530 | 
CCOc1cccc(Nc2nn(C)c3c2Cc2cc(OCC)c(OCC(=O)NCCO)cc2-3)c1 | 3680 | 415 | 1800 | 662 | 
CCOc1cccc(Nc2nn(C)c3c2Cc2cc(OCC)c(OCC(=O)NN)cc2-3)c1 | 760 | 350 | 400 | 579 | 
CCOc1cccc(Nc2nn(C)c3c2Cc2cc(OCC)c(OCC(=O)NOC)cc2-3)c1 | 2900 | 470 | 853 | 1670 | 
CCOc1cccc(Nc2nn(C)c3c2Cc2cc(OCC)c(OCC(=O)NCCN)cc2-3)c1 | 1520 | 865 | 1400 | 1850 | 
CCOc1cccc(Nc2nn(C)c3c2Cc2cc(OCC)c(OCC(=O)NC4CC4)cc2-3)c1 | 1400 | 720 | 653 | 3070 | 
C=CCNC(=O)COc1cc2c(cc1OCC)Cc1c(Nc3cccc(OCC)c3)nn(C)c1-2 | 1940 | 690 | 853 | 765 | 
CCOc1cccc(Nc2nn(C)c3c2Cc2cc(OCC)c(OCC(=O)NO)cc2-3)c1 | 23.5 | 13.2 | 16.4 | 33.5 | inhibition [5]: 31%; inhibition [6]: 63%; IC50 [7]: 5330 nM; inhibition [8]: Dose-dependent effect
CCOc1cccc(Nc2nn(C)c3c2Cc2cc(OCC)c(OCC(=O)N(C)C)cc2-3)c1 | 1780 | 720 | 920 | 6160 | 
CCOc1cccc(Nc2nn(C)c3c2Cc2cc(OCC)c(OCC(=O)NC)cc2-3)c1 | 640 | 90 | 142 | 892 | 
CCOc1cccc(Nc2nn(C)c3c2Cc2cc(OCC)c(OCC(=O)NCC4CC4)cc2-3)c1 | 4600 | 3200 | 1700 | > 50000 | 
COc1ccc(S(=O)(=O)Nc2cccnc2Nc2ccc(O)cc2)cc1 [ABT-751] | 460 | 355 | 447 | 3790 | inhibition [5]: 39%; inhibition [6]: 68%; IC50 [7]: 2790 nM
C#CCNC(=O)COc1cc2c(cc1OCC)Cc1c(Nc3cccc(OCC)c3)nn(C)c1-2 | 1780 | 505 | 587 | 2110 | 
COc1cc2c(c(OC)c1OC)-c1ccc(OC)c(=O)cc1[C@@H](NC(C)=O)CC2 [COLCHICINE] |  | 7.6 | 19 | 47 | Activity [9]: Active; Activity [10]: Active; Activity [11]: 5.89%; Activity [12]: 84.59%; Activity [13]: 1.14%; inhibition [14]: Active; Activity [15]: 37%; Activity [16]: Active; Activity [17]: 8.38%; IC50 [18]: 49.3 nM; IC50 [19]: 59.1 nM; inhibition [20]: Active; Activity [21]: Active
CC(=O)O[C@H]1C(=O)[C@@]2(C)[C@H]([C@H](OC(=O)c3ccccc3)[C@]3(O)C[C@H](OC(=O)[C@H](O)[C@@H](NC(=O)c4ccccc4)c4ccccc4)C(C)=C1C3(C)C)[C@]1(OC(C)=O)CO[C@@H]1C[C@@H]2O [PACLITAXEL] | 21 | 18 |  |  | 
CCOc1cccc(Nc2nn(C)c3c2Cc2cc(OCC)c(OCC(=O)NCCN(C)C)cc2-3)c1 | 460 | 375 | 340 | 2990 | 
COc1ccc(/C=C\c2cc(OC)c(OC)c(OC)c2)cc1O [COMBRETASTATIN A4] | 3.4 |  | 2.1 | 12.5 | inhibition [6]: 92%; IC50 [18]: 35.8 nM; IC50 [19]: 49 nM
CCNC(=O)COc1cc2c(cc1OCC)Cc1c(Nc3cccc(OCC)c3)nn(C)c1-2 | 3740 | 623 | 1310 | 1470 | 
CCOc1cccc(Nc2nn(C)c3c2Cc2cc(OCC)c(OCC(=O)NCCC#N)cc2-3)c1 | 8600 | 1450 | 2420 | 4610 | 
